From US9790233B2, “Compositions and methods of modulating 15-PGDH activity” (CASE WESTERN RESERVE UNIVERSITY, priority 2012, dated 2017)
Read-outs that look alike come from different tables or passages of the source.

Assays:
15-PGDH protein = 15-PGDH protein (Homo sapiens (Human), UniProt P15428); test: Inhibition of enzymatic activity of recombinant 15-PGDH in vitro (tritium transfer from PGE2 or NADH fluorescence); assay type: biochemical; conditions: for IC50: recombinant 15-PGDH in vitro, read-out: Enzyme inhibition (IC50)
Chain of 15-PGDH protein (P15428 whole entry, the tested form may be a part): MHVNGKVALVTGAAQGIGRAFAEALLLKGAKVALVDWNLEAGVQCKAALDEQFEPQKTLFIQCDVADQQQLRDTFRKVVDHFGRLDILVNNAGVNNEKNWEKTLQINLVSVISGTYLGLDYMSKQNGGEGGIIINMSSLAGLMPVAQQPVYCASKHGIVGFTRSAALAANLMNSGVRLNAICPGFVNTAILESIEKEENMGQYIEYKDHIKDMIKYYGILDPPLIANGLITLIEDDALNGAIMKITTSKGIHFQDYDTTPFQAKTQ

[1] = system: 15-PGDH luciferase fusion construct in V9m reporter cell line; test: 15-PGDH-luciferase fusion gene reporter induction, V9m cells; assay type: cell-based
[2] = system: 15-PGDH luciferase fusion construct in LS174T reporter cell line; test: 15-PGDH-luciferase fusion gene reporter induction, LS174T cells; assay type: cell-based; conditions: Homo sapiens
[3] = system: 15-PGDH luciferase fusion construct in Vaco503 reporter cell line; test: 15-PGDH-luciferase fusion gene reporter induction, V503 cells; assay type: cell-based
A549 cells [4] = test: PGE2 levels in the medium of IL1-beta stimulated A549 cells; assay type: cell-based; conditions: for Decrease PGE-2 (IL-1beta-A549, %): media of IL-1beta stimulated A549 cells;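 for all read-outs here: PGE2 in the collected culture medium quantified by enzyme immunoassay (ELISA), with data drawn from three independent experiments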
A549 cells [5] = test: Cellular toxicity on A549 cells (CellTiter-Glo); assay type: cell-based; design: Decrease Cell viability in A549 cell (%): concentration or dose not given beside the values; conditions: for Decrease Cell viability in A549 cell (%): A549 cells
[6] = system: 15-PGDH-luciferase fusion reporter in V9m, LS174T and V503 cells; test: 15-PGDH-luciferase fusion gene reporter induction, stated for the three cell line backgrounds together; assay type: cell-based; conditions: for induction of 15-PGDH-luciferase reporter in cell lines (SW054384 analogues): […] and […]
15-PGDH mRNA = 15-PGDH mRNA levels by real-time PCR; assay type: cell-based; conditions: treated colon cancer cell lines
[7] = read-out: V9M-SC3 Reporter activity ([…]) (%), V9m reporter cells, […] compound, % induction of luciferase activity over basal level, read-out: V9M-SC3 Reporter activity (2.5 μM) (%)
[8] = read-out: V9M-SC3 Reporter activity ([…]), %, V9m reporter cells, […] compound, % induction of luciferase activity over basal level, read-out: V9M-SC3 Reporter activity (7.5 μM), %
[9] = read-out: Ls174T-SC1 reporter activity, % ([…]), LS174T reporter cells, […] compound, % induction of luciferase activity over basal level, read-out: Ls174T-SC1 reporter activity, % (2.5 μM)
[10] = read-out: Ls174T-SC1 reporter activity, % ([…]), LS174T reporter cells, […] compound, % induction of luciferase activity over basal level, read-out: Ls174T-SC1 reporter activity, % (7.5 μM)
[11] = read-out: V503-3H9-7 reporter activity, % ([…]), V503 reporter cells, […] compound, % induction of luciferase activity over basal level, read-out: V503-3H9-7 reporter activity, % (2.5 μM)
[12] = read-out: V503-3H9-7 reporter activity, % ([…]), V503 reporter cells, […] compound, % induction of luciferase activity over basal level, read-out: V503-3H9-7 reporter activity, % (7.5 μM)

| SMILES | IC50 (15-PGDH protein) [µM] | activation at […] [1, 7] [%] | activation at […] [1, 8] [%] | activation at […] [2, 9] [%] | activation at […] [2, 10] [%] | activation at […] [3, 11] [%] | activation at […] [3, 12] [%] | Decrease PGE-2 (IL-1beta-A549, %) (A549 cells [4]) [%] | Decrease Cell viability in A549 cell (%) (A549 cells [5]) | further results |
| --- | --- | --- | --- | --- | --- | --- | --- | --- | --- | --- |
| COc1ccc(OC)c(N(CC(=O)Nc2cccnc2)S(=O)(=O)c2ccc(F)cc2)c1 [SW203736] | – | 132 | 145 | 127 | 156 | 244 | 204 | 31.86 | −3.06 | lowering of PGE2 levels in media (A549 cells [4]): show activity in lowering PGE2 |
| COc1ccc(OC)c(N(CC(=O)Nc2csnc2C)S(=O)(=O)c2ccccc2)c1 [SW203703] | – | 108 | 106 | 85.8 | 80.2 | 143 | 78 | 31.90 | −1.97 | induction of 15-PGDH-luciferase reporter in cell lines (SW054384 analogues) [6]: active in inducing the 15-PGDH-luciferase reporter; lowering of PGE2 levels in media (A549 cells [4]): show activity in lowering PGE2 |
| COc1ccc(OC)c(N(CC(=O)Nc2cc(C)no2)S(=O)(=O)c2ccccc2)c1 [SW203704] | – | 8.71 | 8.04 | 8.64 | 12.5 | 52.8 | 37.8 | 22.33 | −2.70 | induction of 15-PGDH-luciferase reporter in cell lines (SW054384 analogues) [6]: active in inducing the 15-PGDH-luciferase reporter |
| COc1ccc(S(=O)(=O)N(CC(=O)N2CCCCC2)c2cc(OC)ccc2OC)cc1 [SW207999] | – | 128 | 124 | 98 | 123 | 124 | 110 | – | – | induction of 15-PGDH-luciferase reporter in cell lines (SW054384 analogues) [6]: active in inducing the 15-PGDH-luciferase reporter |
| COc1ccc(OC)c(N(CC(=O)Nc2nccs2)S(=O)(=O)c2ccccc2)c1 [SW203691] | – | 7.78 | 19.8 | 5.47 | 22 | 47.1 | 90 | 36.76 | 0.00 | inhibition at […] (15-PGDH protein; read-out: Enzyme inhibition % ([…]), recombinant 15-PGDH, […] compound, read-out: Enzyme inhibition % (7.5 μM)): 3.12% |
| C[S+]([O-])c1sc2nc(-c3cccs3)cc(-c3ccccc3)c2c1N (stereo not drawn) [SW208079, 2-(methylsulfinyl)-4-phenyl-6-(thiophen-2-yl)thieno[2,3-b]pyridin-3-amine] | – | – | – | – | – | – | – | – | – | IC50 higher compared to SW033291 (15-PGDH protein; effect of carbon side chain length): over 60 fold; activation at […] ([1]; read-out: V9M reporter activity ([…]), […], % increased luciferase activity over basal level, 100 = doubling, read-out: V9M reporter activity (2.5 uM)): 36%; activation at […] ([1]; read-out: V9M reporter activity ([…]), […], % increased luciferase activity over basal level, 100 = doubling, read-out: V9M reporter activity (7.5 uM)): 32.8%; activation at […] ([2]; read-out: LS174T reporter activity ([…]), […], % increased luciferase activity over basal level, read-out: LS174T reporter activity (2.5 uM)): 53.4%; activation at […] ([2]; read-out: LS174T reporter activity ([…]), […], % increased luciferase activity over basal level, read-out: LS174T reporter activity (7.5 uM)): 43.8%; activation at […] ([3]; read-out: V503 reporter activity ([…]), […], % increased luciferase activity over basal level, read-out: V503 reporter activity (2.5 uM)): 85.3%; activation at […] ([3]; read-out: V503 reporter activity ([…]), […], % increased luciferase activity over basal level, read-out: V503 reporter activity (7.5 uM)): 61.8%; reporter induction in reporter cell lines [6]: marked loss of activity in inducing the cell line reporters |
| COc1ccc(OC)c(N(CC(=O)Nc2cccnc2)S(=O)(=O)c2ccc(Br)cc2)c1 [SW203737] | – | 93.4 | 103 | 76.7 | 85.1 | 176 | 154 | 47.78 | −2.56 | lowering of PGE2 levels in media (A549 cells [4]): show activity in lowering PGE2 |
| O=C(c1ccc2nc(-c3ccccc3)c(-c3ccccc3)nc2c1)N1CCCCC1 [SW145753] | – | – | – | – | – | – | – | – | – | luciferase activity of cells expressing 15-PGDH luciferase fusion construct ([6]; V9m, LS174T, V503, FIG. 1): increase luciferase activity; PGE2 levels in medium (A549 cells [4]; IL1-beta 23 hours, compound added for the last 5 hours): clear inhibition of 15-PGDH activity; 15-PGDH mRNA levels (real-time PCR) (15-PGDH mRNA): do not in general alter 15-PGDH mRNA levels |
| CCCC[S+]([O-])c1sc2nc(-c3nccs3)ccc2c1N (stereo not drawn) [SW206992, 2-(butylsulfinyl)-6-(thiazol-2-yl)thieno[2,3-b]pyridin-3-amine] | – | – | – | – | – | – | – | – | – | exposure needed to induce maximal reporter induction ([6]; 24 hours, three cell line backgrounds): > 1000 nM; Concentration for Full Cell Line Reporter Induction ([6]; maximal induction of reporter, Table 3): >1 µM; compound concentration at maximal effect on PGE2 (A549 cells [4]; IL-1β 16 h, compound 8 h): 2.5 µM; effect on CellTitre-Glo levels (A549 cells [5]; 24 hours, concentrations of up to 10 uM): No effect on CellTitre-Glo levels; Toxicity (A549 cells [5]; concentration needed to decrease cell numbers in a cell culture assay, Table 3): >7.5 µM |

Second part, led by results:

| IC50 (15-PGDH protein) [µM] | SMILES | activation at […] [1, 7] [%] | activation at […] [1, 8] [%] | activation at […] [2, 9] [%] | activation at […] [2, 10] [%] | activation at […] [3, 11] [%] | activation at […] [3, 12] [%] | Decrease PGE-2 (IL-1beta-A549, %) (A549 cells [4]) [%] | Decrease Cell viability in A549 cell (%) (A549 cells [5]) | further results |
| --- | --- | --- | --- | --- | --- | --- | --- | --- | --- | --- |
| ~7 | COc1ccc(OC)c(N(CC(=O)Nc2cncnc2)S(=O)(=O)c2ccccc2)c1 [SW203683] | 137 | 191 | 3.76 | 210 | 104 | -41 | −3.41 | – | – |
| 0.427 | COc1ccc(S(=O)(=O)N(CC(=O)Nc2ccncc2)c2cc(OC)ccc2OC)cc1 [SW202989] | 188 | 184 | 159 | 171 | 208 | 214 | 69.40 | 30.59 | – |
| ~10 | COc1ccc(OC)c(N(CC(=O)Nc2ccc(C)nc2)S(=O)(=O)c2ccccc2)c1 [SW202988] | 7.36 | 54.4 | 40.5 | 125 | 125 | 258 | −16.79 | – | – |
| ~5 | COc1ccc(S(=O)(=O)N(CC(=O)Nc2cccnc2)c2cc(OC)ccc2OC)cc1 [SW202940] | 147 | 181 | 148 | 211 | 181 | 183 | 80.46 | 45.18 | induction of 15-PGDH-luciferase reporter in cell lines (SW054384 analogues) [6]: active in inducing 15-PGDH-luciferase reporter activity |
| 2.67 | COc1ccc(OC)c(N(CC(=O)Nc2ccncc2)S(=O)(=O)c2ccccc2)c1 [SW202938] | 155 | 230 | 217 | 241 | 309 | 301 | −47.55 | – | – |
| 5 | COc1ccc(OC)c(N(CC(=O)Nc2ccnnc2)S(=O)(=O)c2ccccc2)c1 [SW203685] | 100 | 204 | 22.3 | 254 | 122 | -33.2 | 17.84 | – | – |
